Test results published in ChEMBL document CHEMBL1201862, “PubChem BioAssay data set” (2004).
Calls of active or inactive are those of the source.

Legend:
Tumor necrosis factor = Tumor necrosis factor (Homo sapiens, UniProt P01375); assay: TNFa-triggered NF-kB activation inhibitors, SAR follow-up, cell-based, revised (AID 2337); format: functional
Interleukin-8 = Interleukin-8 (Homo sapiens, UniProt P10145); assay: SAR analysis of tumor necrosis factor alpha (TNF-alpha) induced IL-8 secretion in MCF-7/NOD1 cells. [Related pubchem assays (depositor defined):AID1575, AID2250, AID2260]; format: functional, cell-based
HEK293 = assay: cells; conditions: Homo sapiens
[1] = target: Scavenger receptor class B member 1 (Mus musculus, UniProt Q61009); assay: inhibitors of SR-BI mediated HDL lipid uptake, dose response, ldlA[mSR-BI] cells, fluorescence, cherry pick (AID 493194); format: functional, cell-based;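 further: cellular uptake of fluorescent DiI-labeled HDL measured as cell fluorescence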
Coagulation factor XII = target: T1, Coagulation factor XII (Homo sapiens, UniProt P00748); assay: FXIIa inhibitor potency, concentration-response, biochemical (AID 716); format: functional
T1 sequence (P00748 whole entry): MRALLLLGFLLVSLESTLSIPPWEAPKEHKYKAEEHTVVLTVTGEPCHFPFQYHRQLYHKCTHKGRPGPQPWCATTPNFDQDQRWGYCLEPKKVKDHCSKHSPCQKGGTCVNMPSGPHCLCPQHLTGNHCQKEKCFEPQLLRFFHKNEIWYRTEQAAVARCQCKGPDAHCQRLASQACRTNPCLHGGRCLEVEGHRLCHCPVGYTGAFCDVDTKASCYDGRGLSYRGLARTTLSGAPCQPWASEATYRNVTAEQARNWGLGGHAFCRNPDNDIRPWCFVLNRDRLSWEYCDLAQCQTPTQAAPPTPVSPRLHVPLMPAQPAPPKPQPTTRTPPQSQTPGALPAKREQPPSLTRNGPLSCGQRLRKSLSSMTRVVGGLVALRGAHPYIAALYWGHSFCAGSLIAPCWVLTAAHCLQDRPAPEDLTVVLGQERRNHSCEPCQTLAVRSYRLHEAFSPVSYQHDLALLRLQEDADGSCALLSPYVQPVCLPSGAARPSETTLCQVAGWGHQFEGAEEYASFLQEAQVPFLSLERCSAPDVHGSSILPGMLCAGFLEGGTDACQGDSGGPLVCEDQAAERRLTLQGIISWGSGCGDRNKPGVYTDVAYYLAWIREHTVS

[2] = target: Dual specificity protein phosphatase 3 (Homo sapiens, UniProt P51452); assay: VHR1 inhibitor Ki determination, SAR follow-up, biochemical, colorimetric (AID 2004)
[3] = target: T2, Voltage-gated N-type calcium channel alpha-1B subunit/Amyloid beta A4 precursor protein-binding family A member 1 (Homo sapiens, UniProt Q00975+Q02410); format: protein assay
NS3 = NS3 (Hepatitis C virus, UniProt A3EZJ3); assay: PubChem AID 2173; parameters: species or system Hepacivirus hominis
[4] = target: T2, Voltage-gated N-type calcium channel alpha-1B subunit/Amyloid beta A4 precursor protein-binding family A member 1; format: protein assay; remark: listed apart in the source
Estrogen receptor beta = Estrogen receptor beta (Homo sapiens, UniProt Q92731); assay: ERβ–SRC-3 coactivator interaction inhibitors, confirmation, orthogonal assay, biochemical, ELISA, streptavidin-HRP readout (AID 1060)
[5] = target: T3, Tyrosine-protein phosphatase non-receptor type 7 (Homo sapiens, UniProt P35236); assay: redox-dependent HePTP inhibition, mechanism study, biochemical, fluorescence (AID 2068); format: functional
T3 sequence (P35236 whole entry): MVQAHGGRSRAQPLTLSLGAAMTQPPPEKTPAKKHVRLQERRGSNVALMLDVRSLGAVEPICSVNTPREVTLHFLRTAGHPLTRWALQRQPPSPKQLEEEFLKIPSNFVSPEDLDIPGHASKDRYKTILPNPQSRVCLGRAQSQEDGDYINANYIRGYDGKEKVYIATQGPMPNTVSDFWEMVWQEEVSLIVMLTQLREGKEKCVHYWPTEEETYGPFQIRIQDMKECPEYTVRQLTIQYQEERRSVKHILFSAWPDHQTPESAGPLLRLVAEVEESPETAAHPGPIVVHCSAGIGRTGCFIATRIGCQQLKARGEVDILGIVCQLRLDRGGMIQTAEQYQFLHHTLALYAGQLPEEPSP

[6] = target: T2, Voltage-gated N-type calcium channel alpha-1B subunit/Amyloid beta A4 precursor protein-binding family A member 1; assay: disruptors of Mint-PDZ/N-type channel peptide interaction – biochemical, HTRF, SAR follow-up (AID 2489); format: functional
Integrin alpha-4 = Integrin alpha-4 (Homo sapiens, UniProt P13612); assay: VLA-4 integrin allosteric ligands, SAR follow-up, cell-based, LIBS antibody binding, flow cytometry (AID 488791); format: functional
[7] = target: NACHT, LRR and PYD domains-containing protein 3 (Homo sapiens, UniProt Q96P20); assay: NALP3 inhibitors in yeast, dose response, luminescent (AID 488799); format: functional
[8] = target: Acyl-homoserine lactone acylase PvdQ (Pseudomonas aeruginosa (strain LESB58), UniProt Q9I194); assay: P. aeruginosa PvdQ acylase inhibitors, dose response, biochemical, fluorescence, plate reader and imaging, cherry-picks (AID 493231)
[9] = target: G-protein coupled receptor 35 (Homo sapiens, UniProt Q9HC97); assay: GPR35 antagonists blocking zaprinast-driven arrestin recruitment, primary screen, imaging, U2OS, beta-arrestin-GFP, zaprinast agonist (AID 2058); format: functional;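 further: antagonist potency meaning inhibition of agonist-induced arrestin redistribution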
[10] = target: Cystic fibrosis transmembrane conductance regulator/Golgi-associated PDZ and coiled-coil motif-containing protein (Homo sapiens, UniProt P13569+Q9HD26); assay: CAL PDZ peptide-binding inhibitors, dose response, biochemical, fluorescence polarization, Cerulean-tagged CAL PDZ, cherry-picks (AID 504773)
[11] = target: T4, Mannose-6-phosphate isomerase (Homo sapiens, UniProt P34949); assay: PMI enzyme inhibitors, confirmation, biochemical, fluorescence intensity (AID 1535)
T4 sequence (P34949 whole entry): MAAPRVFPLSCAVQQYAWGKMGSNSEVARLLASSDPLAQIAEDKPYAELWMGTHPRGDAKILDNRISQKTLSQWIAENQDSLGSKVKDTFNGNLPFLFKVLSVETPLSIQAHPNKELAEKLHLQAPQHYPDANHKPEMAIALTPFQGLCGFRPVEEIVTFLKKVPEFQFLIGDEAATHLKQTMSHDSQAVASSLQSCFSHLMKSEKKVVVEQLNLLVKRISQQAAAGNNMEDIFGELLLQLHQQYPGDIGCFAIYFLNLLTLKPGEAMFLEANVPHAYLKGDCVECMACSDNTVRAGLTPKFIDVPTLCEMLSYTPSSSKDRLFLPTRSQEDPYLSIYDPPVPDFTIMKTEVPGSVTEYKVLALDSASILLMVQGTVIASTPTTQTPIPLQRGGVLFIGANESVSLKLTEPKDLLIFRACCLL

Phosphomannomutase 2 = Phosphomannomutase 2 (Homo sapiens, UniProt O15305); assay: Counter screen SAR assay for PMM2 inhibitors via a fluorescence intensity assay. [Related pubchem assays (depositor defined):AID1545, AID1574]
[12] = target: Phosphoethanolamine/phosphocholine phosphatase (Homo sapiens, UniProt Q8TCT1); assay: SAR assay for compounds that inhibit PHOSPHO1. [Related pubchem assays (depositor defined):AID1545, AID1565, AID1574]
[13] = target: T4, Mannose-6-phosphate isomerase; assay: Confirmation of compounds inhibiting phosphomannose isomerase (PMI) via a fluorescence intensity assay using a high concentration of mannose 6-phosphate. [Related pubchem assays (depositor defined):AID1209, AID1220, AID1545, AID1553, AID1620]
[14] = Luminescence Cell-Based Dose Response HTS to Identify Activators of Luciferase Translation or Activity in H4-C Neuroglioblastoma Cells. [Related pubchem assays: 1829 (Project Summary), 1814 (Primary HTS)]; format: functional
[15] = Luminescence Cell-Based Dose Retest to Confirm Activators of 5'UTR Stem-Loop Driven Alpha-Synuclein mRNA Translation in H4 Neuroglioblastoma Cells. [Related pubchem assays (depositor defined):AID1813, AID1829]; format: functional
[16] = Luminescence Cell-Based Dose Response HTS to Identify Activators of 5'UTR Stem-Loop Driven Prion Protein mRNA Translation in H4-C Neuroglioblastoma Cells. [Related pubchem assays: 1829 (Project Summary), 1814 (Primary HTS)]; format: functional
[17] = Luminescence Cell-Based Dose Confirmation HTS to Identify Activators of 5'UTR Stem-Loop Driven Alpha-Synuclein mRNA Translation in H4 Neuroglioblastoma Cells. [Related pubchem assays: 1829 (Project Summary), 1814 (Primary HTS)]; format: functional
[18] = Luminescence Cell-Based Dose Response HTS to Identify Activators of Luciferase Translation or Activity in H4 […] Cells. [Related pubchem assays: 1829 (Project Summary), 1814 (Primary HTS)]; format: functional
H4 = assay: Luminescence Cell-Based Dose Response HTS to Identify Activators of 5'UTR Stem-Loop Driven Prion Protein mRNA Translation in H4 Neuroglioblastoma Cells. [Related pubchem assays: 1829 (Project Summary), 1814 (Primary HTS)]; format: functional; conditions: Homo sapiens
Mu-type opioid receptor = Mu-type opioid receptor (Homo sapiens, UniProt P35372); assay: SAR Analysis of Antagonists of the MOR Receptor using an Image-Based Assay - Set 3. [Related pubchem assays (depositor defined):AID1777, AID1785, AID1786, AID1966, AID2133, AID2136, AID2284, AID2285, AID2420]; format: functional
[19] = target: Delta-type opioid receptor (Homo sapiens, UniProt P41143); assay: SAR Analysis of Antagonists of the DOR Receptor using an Image-Based Assay - Set 3. [Related pubchem assays (depositor defined):AID1777, AID1785]; format: functional;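 further: U2OS cells expressing DOR1 and beta-arrestin GFP stimulated with 100 nM SNC80; imaging of GFP-tagged beta-arrestin moving into spots after receptor activation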
[20] = target: T5, Kappa-type opioid receptor (Homo sapiens, UniProt P41145); assay: SAR analysis of small molecule antagonists of the kappa opioid receptor via a luminescent beta-arrestin assay - Set 3. [Related pubchem assays (depositor defined):AID1777, AID1778, AID1785, AID1786, AID1966, AID2133, AID2136, AID2285, AID2495]; format: functional
[21] = target: T5, Kappa-type opioid receptor; assay: SAR analysis of Antagonists of the Kappa Opioid Receptor (KOR) using an Image-Based Assay - Set 3. [Related pubchem assays (depositor defined):AID1777, AID1785]; format: functional
Vero [22] = assay: cytotoxicity of synthesized analogs in Vero 76, SAR follow-up, cytotoxicity control for West Nile virus antiviral project, Vero 76 cells (AID 2414); format: functional; conditions: Chlorocebus sabaeus
Vero [23] = assay: cytotoxicity of synthesized analogs in Vero cells, SAR follow-up, cytotoxicity control for West Nile virus antiviral project, cell-based, set II (AID 2402); format: functional; conditions: Chlorocebus sabaeus
Vero [24] = assay: Vero E6 cell cytotoxicity, SAR follow-up, cytotoxicity control for West Nile virus antiviral project, synthesized analogs (AID 2244); format: functional; conditions: Chlorocebus sabaeus
[25] = A Cell Based Assay for the Identification of Probe candidate Compounds with Anti- Venezuelan Equine Encephalitis virus. [Related pubchem assays: 2409, 2419, 1621, 2238, 2405, 2024, 2065, 2402, 2414, 1635, 1650, 2244 ]; format: functional
Vero [26] = assay: West Nile virus CPE inhibition, SAR follow-up, cell-based, synthesized analogs (AID 2238); format: functional; conditions: Chlorocebus sabaeus
Vero [27] = assay: West Nile virus cytopathic effect inhibition, cell-based (AID 2419); format: functional; conditions: Chlorocebus sabaeus
Vero [28] = assay: West Nile virus antiviral activity, cell-based, CPE readout (AID 1621); format: functional; conditions: Chlorocebus sabaeus
[29] = target: Alkaline phosphatase, placental type (Homo sapiens, UniProt P05187); assay: PLAP enzyme inhibitors, confirmation, biochemical, luminescence (AID 1512); format: functional
Sequence of Alkaline phosphatase, placental type (P05187 whole entry): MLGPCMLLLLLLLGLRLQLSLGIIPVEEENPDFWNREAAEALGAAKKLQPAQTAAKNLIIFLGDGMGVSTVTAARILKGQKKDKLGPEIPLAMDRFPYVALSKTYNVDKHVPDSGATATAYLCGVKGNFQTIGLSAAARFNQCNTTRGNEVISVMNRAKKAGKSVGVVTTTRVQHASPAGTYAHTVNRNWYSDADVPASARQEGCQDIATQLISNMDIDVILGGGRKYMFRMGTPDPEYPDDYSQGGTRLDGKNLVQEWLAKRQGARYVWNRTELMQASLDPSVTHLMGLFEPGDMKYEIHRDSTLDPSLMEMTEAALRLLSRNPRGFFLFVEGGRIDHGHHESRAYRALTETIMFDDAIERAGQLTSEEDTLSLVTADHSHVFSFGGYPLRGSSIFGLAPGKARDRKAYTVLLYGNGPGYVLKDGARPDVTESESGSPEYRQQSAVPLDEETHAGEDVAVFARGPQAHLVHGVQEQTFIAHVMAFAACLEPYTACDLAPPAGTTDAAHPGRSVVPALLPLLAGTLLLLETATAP

T2 sequence (Q00975 whole entry): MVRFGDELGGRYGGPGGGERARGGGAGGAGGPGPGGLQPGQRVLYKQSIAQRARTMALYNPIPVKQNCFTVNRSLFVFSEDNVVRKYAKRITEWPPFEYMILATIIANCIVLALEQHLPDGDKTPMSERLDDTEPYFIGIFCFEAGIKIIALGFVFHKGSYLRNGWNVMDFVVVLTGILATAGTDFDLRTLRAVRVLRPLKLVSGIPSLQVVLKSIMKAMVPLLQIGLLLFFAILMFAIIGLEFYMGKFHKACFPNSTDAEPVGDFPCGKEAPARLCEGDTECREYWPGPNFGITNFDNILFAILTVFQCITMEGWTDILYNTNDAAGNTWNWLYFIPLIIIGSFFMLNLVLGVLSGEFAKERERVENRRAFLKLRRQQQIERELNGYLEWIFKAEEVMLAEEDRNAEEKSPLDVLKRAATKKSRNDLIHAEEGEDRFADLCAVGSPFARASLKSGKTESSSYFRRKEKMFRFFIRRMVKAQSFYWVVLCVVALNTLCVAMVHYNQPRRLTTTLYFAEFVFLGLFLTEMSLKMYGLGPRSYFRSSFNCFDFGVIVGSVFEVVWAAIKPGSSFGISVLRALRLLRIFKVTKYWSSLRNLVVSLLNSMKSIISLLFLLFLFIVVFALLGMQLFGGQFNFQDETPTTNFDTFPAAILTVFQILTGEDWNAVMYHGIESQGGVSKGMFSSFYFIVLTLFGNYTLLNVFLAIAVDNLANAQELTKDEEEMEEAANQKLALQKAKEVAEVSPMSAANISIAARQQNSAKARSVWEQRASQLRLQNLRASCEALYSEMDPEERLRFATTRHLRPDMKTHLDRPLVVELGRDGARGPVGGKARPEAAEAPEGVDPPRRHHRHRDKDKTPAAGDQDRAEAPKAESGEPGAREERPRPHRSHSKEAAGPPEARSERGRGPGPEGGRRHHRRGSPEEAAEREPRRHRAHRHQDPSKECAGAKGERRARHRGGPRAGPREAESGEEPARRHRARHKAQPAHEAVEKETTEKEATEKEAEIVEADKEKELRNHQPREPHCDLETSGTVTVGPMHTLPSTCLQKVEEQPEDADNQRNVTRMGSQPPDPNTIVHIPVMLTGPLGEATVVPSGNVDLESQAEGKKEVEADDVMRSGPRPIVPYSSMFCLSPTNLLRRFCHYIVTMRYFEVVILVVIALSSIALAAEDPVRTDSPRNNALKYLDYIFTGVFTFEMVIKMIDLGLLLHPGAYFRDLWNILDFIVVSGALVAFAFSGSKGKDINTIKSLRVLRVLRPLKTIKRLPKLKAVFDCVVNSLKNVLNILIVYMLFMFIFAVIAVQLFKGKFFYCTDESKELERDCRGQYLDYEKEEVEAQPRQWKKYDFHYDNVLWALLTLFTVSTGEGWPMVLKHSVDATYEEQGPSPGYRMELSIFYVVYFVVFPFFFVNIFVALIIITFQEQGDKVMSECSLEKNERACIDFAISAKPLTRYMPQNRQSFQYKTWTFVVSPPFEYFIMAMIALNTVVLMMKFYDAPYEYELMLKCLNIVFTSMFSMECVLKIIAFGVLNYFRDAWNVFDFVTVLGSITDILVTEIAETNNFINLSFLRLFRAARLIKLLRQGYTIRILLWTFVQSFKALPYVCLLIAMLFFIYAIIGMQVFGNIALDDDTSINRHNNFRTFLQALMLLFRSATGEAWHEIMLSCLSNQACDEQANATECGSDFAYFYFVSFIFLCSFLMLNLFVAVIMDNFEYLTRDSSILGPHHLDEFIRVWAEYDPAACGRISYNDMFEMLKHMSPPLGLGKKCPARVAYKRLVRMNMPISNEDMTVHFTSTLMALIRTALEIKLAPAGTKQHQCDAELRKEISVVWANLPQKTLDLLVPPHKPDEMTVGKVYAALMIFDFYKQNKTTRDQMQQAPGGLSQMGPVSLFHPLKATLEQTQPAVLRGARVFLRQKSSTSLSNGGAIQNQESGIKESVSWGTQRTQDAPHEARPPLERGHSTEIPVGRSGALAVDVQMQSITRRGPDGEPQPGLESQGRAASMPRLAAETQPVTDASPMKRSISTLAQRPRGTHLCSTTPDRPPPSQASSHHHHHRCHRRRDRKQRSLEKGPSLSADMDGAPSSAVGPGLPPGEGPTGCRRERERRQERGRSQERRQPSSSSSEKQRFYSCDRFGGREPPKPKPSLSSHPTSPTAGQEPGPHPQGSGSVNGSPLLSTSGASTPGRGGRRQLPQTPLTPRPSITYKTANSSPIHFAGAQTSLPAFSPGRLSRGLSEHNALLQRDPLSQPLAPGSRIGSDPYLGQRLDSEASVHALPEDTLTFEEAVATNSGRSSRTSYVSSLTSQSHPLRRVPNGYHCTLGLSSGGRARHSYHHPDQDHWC
T2 sequence (Q02410 whole entry): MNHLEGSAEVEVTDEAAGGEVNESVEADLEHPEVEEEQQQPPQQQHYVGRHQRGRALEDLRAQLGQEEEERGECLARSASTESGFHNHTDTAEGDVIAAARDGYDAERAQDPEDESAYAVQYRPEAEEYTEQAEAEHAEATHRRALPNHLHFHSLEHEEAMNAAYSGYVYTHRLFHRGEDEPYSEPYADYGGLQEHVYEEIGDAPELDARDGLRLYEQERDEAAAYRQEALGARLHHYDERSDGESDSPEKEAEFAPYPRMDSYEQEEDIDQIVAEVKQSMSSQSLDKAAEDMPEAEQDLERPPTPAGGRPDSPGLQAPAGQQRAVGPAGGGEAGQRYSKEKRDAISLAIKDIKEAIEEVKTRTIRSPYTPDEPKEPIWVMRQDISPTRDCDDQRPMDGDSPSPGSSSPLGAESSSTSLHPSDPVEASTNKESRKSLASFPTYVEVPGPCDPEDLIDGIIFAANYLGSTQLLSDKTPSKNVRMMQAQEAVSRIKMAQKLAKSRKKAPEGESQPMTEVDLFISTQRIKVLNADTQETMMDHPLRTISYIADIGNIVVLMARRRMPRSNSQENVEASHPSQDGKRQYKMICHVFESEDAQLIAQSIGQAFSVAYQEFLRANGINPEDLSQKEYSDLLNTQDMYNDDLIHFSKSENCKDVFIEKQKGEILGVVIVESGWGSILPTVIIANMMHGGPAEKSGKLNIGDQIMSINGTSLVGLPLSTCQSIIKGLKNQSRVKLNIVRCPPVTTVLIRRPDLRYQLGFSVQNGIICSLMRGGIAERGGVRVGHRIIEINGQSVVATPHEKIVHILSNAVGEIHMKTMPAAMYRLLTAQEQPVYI
Sequence of Phosphomannomutase 2 (O15305 whole entry): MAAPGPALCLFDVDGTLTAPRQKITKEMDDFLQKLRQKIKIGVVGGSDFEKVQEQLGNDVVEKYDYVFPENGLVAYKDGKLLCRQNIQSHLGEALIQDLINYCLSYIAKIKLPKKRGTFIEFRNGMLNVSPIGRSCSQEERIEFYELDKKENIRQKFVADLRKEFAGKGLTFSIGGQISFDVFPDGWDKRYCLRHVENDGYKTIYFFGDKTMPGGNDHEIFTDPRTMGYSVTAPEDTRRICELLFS
T5 sequence (P41145 whole entry): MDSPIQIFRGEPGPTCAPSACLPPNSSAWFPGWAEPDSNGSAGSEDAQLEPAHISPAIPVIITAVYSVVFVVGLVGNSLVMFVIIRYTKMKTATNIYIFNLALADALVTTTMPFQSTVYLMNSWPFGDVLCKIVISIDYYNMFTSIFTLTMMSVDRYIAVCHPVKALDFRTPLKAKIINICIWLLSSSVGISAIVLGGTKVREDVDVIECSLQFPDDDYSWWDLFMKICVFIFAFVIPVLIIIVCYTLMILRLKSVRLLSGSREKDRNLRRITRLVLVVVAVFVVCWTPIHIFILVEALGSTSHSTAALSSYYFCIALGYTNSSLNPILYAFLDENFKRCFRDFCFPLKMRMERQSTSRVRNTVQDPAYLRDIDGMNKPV
Sequence of Dual specificity protein phosphatase 3 (P51452 whole entry): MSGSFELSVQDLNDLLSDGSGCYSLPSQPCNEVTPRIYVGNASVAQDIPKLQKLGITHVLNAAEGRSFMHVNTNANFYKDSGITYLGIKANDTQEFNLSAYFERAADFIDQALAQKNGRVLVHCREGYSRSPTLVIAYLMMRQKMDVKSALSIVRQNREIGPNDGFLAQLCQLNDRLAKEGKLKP
Sequence of G-protein coupled receptor 35 (Q9HC97 whole entry): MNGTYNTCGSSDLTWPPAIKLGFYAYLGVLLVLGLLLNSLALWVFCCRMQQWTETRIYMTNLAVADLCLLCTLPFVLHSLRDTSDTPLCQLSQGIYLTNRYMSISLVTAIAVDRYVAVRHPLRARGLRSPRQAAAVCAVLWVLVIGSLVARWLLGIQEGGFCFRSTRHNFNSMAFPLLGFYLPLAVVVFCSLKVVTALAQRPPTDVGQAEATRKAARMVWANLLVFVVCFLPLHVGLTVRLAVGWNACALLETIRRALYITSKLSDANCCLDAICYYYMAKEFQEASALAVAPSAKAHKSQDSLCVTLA
Sequence of Interleukin-8 (P10145 whole entry): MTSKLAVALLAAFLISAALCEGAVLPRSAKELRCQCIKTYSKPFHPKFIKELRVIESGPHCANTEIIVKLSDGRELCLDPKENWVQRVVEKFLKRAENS

## Nc1nc2ccccc2n1S(=O)(=O)c1ccccc1
Tumor necrosis factor
  IC50: > 20 µM (inactive)
Interleukin-8
  IC50: > 5 µM (inactive)
HEK293
  IC50: > 20 µM (inactive)

## COc1cc(NC(=O)c2cc(-c3ccccc3Cl)on2)cc(OC)c1OC
[1]
  AC50: 32 µM (active)

## O=C(NCc1n[nH]c(=S)n1-c1ccccc1)c1ccco1
Coagulation factor XII
  IC50: > 50 µM (inactive)

## O=C1NC(=S)N(c2ccc(Cl)cc2)C(=O)/C1=C/c1ccc(-c2ccccc2C(=O)O)o1
[2]
  Ki: 36.6 µM (inactive)

## O=C(NC1CCCC1)c1ccc2nc(-c3ccco3)c(-c3ccco3)nc2c1
[3]
  IC50: 26 µM (active)
NS3
  IC50: 5.49 µM (active)
[4]
  IC50: 2.28 µM (active)
Estrogen receptor beta
  IC50: 478 nM (not active)
[5]
  IC50: 2.94 µM (active)
[6]
  IC50: > 56.8 µM (inactive)

## COC(=O)C1OC2(OC1C(=O)OC)c1ccccc1-c1ccccc12 (stereo unspecified)
Integrin alpha-4
  EC50: 7.14 µM (active)

## COc1cc(CNCCc2ccccc2)ccc1OCc1ccc(Cl)nc1
[7]
  IC50: 30.1 µM (active)

## N#CC(c1cccc(Cl)c1)c1ncc(C(F)(F)F)cc1Cl (stereo unspecified)
[8]
  AC50: 2.74 µM (active)

## C=CCCCCCCCCc1nnc(SCC(=O)O)[nH]1
[9]
  IC50: 553 nM (active)

## O=C(c1ccccc1)C(c1ccccc1)c1ccccc1
[10]
  AC50: > 56 µM (inactive)

## Cc1ccc(C)c(-n2[se]c3ccccc3c2=O)c1
[11]
  IC50: 88 µM (active)
Phosphomannomutase 2
  IC50: > 100 µM (inactive)
[12]
  IC50: 36 µM (inactive)

## O=c1c2ccc(O)cc2sn1C1CCCC1
[13]
  IC50: > 100 µM (inactive)
[11]
  IC50: > 100 µM (inactive)
Phosphomannomutase 2
  IC50: > 100 µM (inactive)

## O=C1Nc2ccccc2S/C1=C\C(=O)N1CCCC1
[14]
  EC50: 13.2 µM (active)
[15]
  EC50: > 195 µM (inactive)
[16]
  EC50: 9.5 µM (active)
[17]
  EC50: 264 nM (active)
[18]
  EC50: 8.16 µM (active)
H4
  EC50: > 120 µM (not active)

## O=C(Cn1c(=O)c2cccn2c2cccnc21)NCCCN1CCC(Cc2ccccc2)CC1
Mu-type opioid receptor
  IC50: > 32 µM (inactive)
[19]
  IC50: > 32 µM (inactive)
[20]
  IC50: 4.65 µM (active)
[21]
  IC50: 1.31 µM (active)

## CN(C)CCCN=C(S)N1CCN(c2nc(-c3ccccc3)cs2)CC1
Vero [22]
  CC50: 13.9 µM (active)
Vero [23]
  CC50: 15.1 µM (active)
Vero [24]
  CC50: 25 µM (active)
[25]
  IC50: 6.88 µM (active)
Vero [26]
  IC50: > 20 µM (active)
Vero [27]
  IC50: > 12.5 µM (active)
Vero [28]
  IC50: 17.5 µM (active)

## COCCNC(=O)NC1(C(F)(F)F)Oc2cc(Cl)c(Cl)cc2O1
[29]
  IC50: > 100 µM (inactive)
